From patent US12385008B2, “Method for producing retinal tissue” (SUMITOMO PHARMA CO., LTD., priority 2015, dated 2025) come the findings set out here.

The test system of experiment [1] is human iPS cells (1231A3 strain). Description: Pax6 and Chx10 immunostaining of cell aggregates from human iPS cells (Example 2). Particulars: first step MEK inhibitor ± PKC inhibitor; second step with 30 nM SAG; BMP4 1.5 nM from day 3; 22 days after start of suspension culture; FIG. 3. The format is cell-based. On the procedure: (§1) iPS cells derived from human peripheral blood derived-mononuclear cells established from ePMBC (registered trade mark) of Cellular Technology Limited (1231A3 strain, Kyoto University) were used. Undifferentiated maintenance culture of these iPS cells under feeder cell-free conditions was performed according to the method described in “Nakagawa, M. et. al., Sci. Rep. 2014 Jan. 8; 4: 3594”. As the medium, “StemFit (registered trade mark)” AK03 medium (Ajinomoto Co., Inc.) was used and iMatrix-511 (Nippi) was used as a culture substrate.
Production of retinal tissue including a step of culturing in a medium containing an MEK inhibitor, a PKC inhibitor or a Sonic hedgehog signal transduction pathway activating substance was performed as follows. Human iPS cells under culture for maintaining an undifferentiated state were treated with 0.5×TrypLE select (mixture of equal amounts of TrypLE select (Life Technologies) and 0.5 mM EDTA/PBS(−)), scraped using a cell scraper, dispersed to single cells by pipetting, seeded in a 6-well culture plate coated with iMatrix-511 (0.5 μg/cm^2) at 1.2×10^4 cells per 1 well, and cultured in a StemFit medium containing Y-27632 (Wako Pure Chemical Industries, Ltd.) (final concentration 10 μM) as a ROCK inhibitor under 37° C., 5% CO2 conditions. […]

Experiment [2] shares this test system. Description: Microscopic observation of collapse of cell aggregates from human iPS cells (Example 2). The format is cell-based. Particulars: 10 days after start of suspension culture, FIG. 2. On the procedure: as §1
Production of retinal tissue including a step of culturing in a medium containing an MEK inhibitor, a PKC inhibitor or a Sonic hedgehog signal transduction pathway activating substance was performed as follows. Human iPS cells under culture for maintaining an undifferentiated state were treated with 0.5×TrypLE select (mixture of equal amounts of TrypLE select (Life Technologies) and 0.5 mM EDTA/PBS(−)), scraped using a cell scraper, dispersed to single cells by pipetting, seeded in a 6-well culture plate coated with iMatrix-511 (0.5 μg/cm^2) at 1.2×10^4 cells per 1 well, and cultured in a StemFit medium containing Y-27632 (Wako Pure Chemical Industries, Ltd.) (final concentration 10 μM) as a ROCK inhibitor under 37° C., 5% CO2 conditions. At 2 days after the seeding, PD0325901 (SIGMA) (final concentration 1 μM) as an MEK inhibitor and Go6983 (SIGMA) (final concentration 2 μM) as a PKC inhibitor were added and the mixture was cultured for 5 days, or at 6 days after seeding, PD0325901 (final concentration 1 μM) was added and the mixture was cultured for […] (completion of step 1). The cells cultured in the medium containing the above-mentioned inhibitors were treated with 0.5×TrypLE select, scraped using a cell scraper, dispersed to single cells by pipetting, seeded in a 96-well culture plate (PrimeSurface 96 V-BOTTOM plate, SUMITOMO BAKELITE CO., LTD.) at 1.0×10^4 cells per 1 well, and cultured in 100 μl of a gfCDM+KSR medium [45% IMDM (Life Technologies), 45% F12 (Life Technologies), 10% KSR (Life Technologies), 1% Chemically defined lipid concentrate (Life Technologies), 450 μM 1-Thioglycerol (SIGMA)] supplemented with Y-27632 (final concentration 20 μM) (second step SAG(−)) or seeded in a gfCDM+KSR medium supplemented with SAG (Enzo) (final concentration 30 nM) (second step SAG(+)) and cultured in suspension under 37° C., 5% CO2 conditions. Cell aggregates were formed by 2 days after the start of the suspension culture (completion of step 2). […]

For the compound `O=C(NOC[C@H](O)CO)c1ccc(F)c(F)c1Nc1ccc(I)cc1F` [PD0325901], the “Pax6, Chx10 (retinal progenitor cell markers) co-positive cells in cell aggregates” value in experiment [1] is listed as “Pax6, Chx10 co-positive cells were confirmed”. In addition, the collapse of aggregates entry in experiment [2] (1-day treatment in first step (1 μM), second step SAG(+) (30 nM SAG)) is “collapse of aggregates was hardly observed”; in experiment [2] (1-day treatment in first step (1 μM), second step SAG(−)), “collapse of aggregates was observed”; in experiment [2] (5-day treatment in first step (PD0325901 1 μM, Go6983 2 μM), irrespective of presence or absence of SAG in second step) it was “Collapse of aggregates was not observed”.
For the compound `CNC1CCC(N(Cc2cccc(-c3ccncc3)c2)C(=O)c2sc3ccccc3c2Cl)CC1` (centres unmarked) [SAG, N-methyl-N′-(3-pyridinylbenzyl)-N′-(3-chlorobenzo[b]thiophene-2-carbonyl)-1,4-diaminocyclohexane], the collapse of aggregates entry in experiment [2] (non-treatment in first step, second step SAG(+) (30 nM SAG)) is given as “collapse of aggregates was hardly observed”.
